The results in this text go back to patent US9108983B2, “Pyrrole compounds, a process for their preparation and pharmaceutical compositions containing them” (LES LABORATOIRES SERVIER, priority 2013, dated 2015).

One assay deals with Bcl-2 protein (histag-Bcl-2, UniProtKB P10415) (Homo sapiens (Human), UniProt P10415). The assay is described as follows: Inhibition of Bcl-2 by the fluorescence polarisation technique. The assay is classed as binding. The following applies: incubation for 2 hours, read-out: IC50 (nM) Bcl-2 FP. An outline of the steps:
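Fluorescence polarisation competition: His-tagged Bcl-2 (2.50×10^−8 M final) with fluorescein-labelled peptide (1.00×10^−8 M final) in 10 mM Hepes, 150 mM NaCl, 0.05% Tween20, pH 7.4. Increasing compound concentrations were added. Polarisation was read after 2 h incubation.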

Assay [1] deals with RS4;11 leukaemia tumour line. As to the kind of experiment: In vitro cytotoxicity (Microculture Tetrazolium Assay). The following applies: RS4;11 cells, exposed for 48 hours, cell viability, read-out: IC50 (nM) MTT RS4;11. It counts as cell-based. As to the method:
The cytotoxicity studies were carried out on the RS4;11 leukaemia tumour line.
The cells are distributed onto microplates and exposed to the test compounds for 48 hours.
The cell viability is then quantified by a colorimetric assay, the Microculture Tetrazolium Assay (Cancer Res., 1987, 47, 939-942).

Counter-ions that a name gives are not always drawn. Like-named read-outs stand apart in the source and are kept apart here.

Chain of Bcl-2 protein (P10415 whole entry): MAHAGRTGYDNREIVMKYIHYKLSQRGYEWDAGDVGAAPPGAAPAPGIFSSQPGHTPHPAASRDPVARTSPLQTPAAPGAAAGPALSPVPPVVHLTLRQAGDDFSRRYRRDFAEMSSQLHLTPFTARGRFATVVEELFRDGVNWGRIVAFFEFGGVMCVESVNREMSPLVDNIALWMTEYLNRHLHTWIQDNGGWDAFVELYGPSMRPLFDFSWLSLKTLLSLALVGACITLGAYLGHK

With `Cc1c(C(=O)N(c2ccccc2)c2cnc3c(ccn3C)c2)cc(-c2cc3c(cc2C(=O)N2Cc4ccccc4C[C@H]2CN2CCOCC2)OCO3)n1C` [Example 65, 1,2-Dimethyl-N-(1-methyl-1H-pyrrolo[2,3-b]pyridin-5-yl)-5-(6-{[(3S)-3-(morpholin-4-ylmethyl)-3,4-dihydroisoquinolin-2(1H)-yl]carbonyl}-1,3-benzodioxol-5-yl)-N-phenyl-1H-pyrrole-3-carboxamide hydrochloride], the concentration for half-maximal inhibition (IC50) was determined as 21.9 nM on Bcl-2 protein and 113 nM in assay [1] (Homo sapiens, RS4-11, 48 h).

In the case of `Cc1ccc(OC(=O)NCc2ccc(-c3cc(C(=O)N(C)c4ccc(O)cc4)c(C)n3C)c(C(=O)N3Cc4ccccc4C[C@H]3C)c2)cc1` [Example 66, 4-Methylphenyl (4-{4-[(4-hydroxyphenyl)(methyl)carbamoyl]-1,5-dimethyl-1H-pyrrol-2-yl}-3-{[(3R)-3-methyl-3,4-dihydroisoquinolin-2(1H)-yl]-carbonyl}benzyl)carbamate], the 50% inhibitory concentration (IC50) on Bcl-2 protein came to 16.9 nM; in assay [1] (Homo sapiens), 241 nM.

On to `Cc1c(C(=O)N(c2ccc(O)cc2)c2cnn(C)c2)cc(-c2cc(F)c(O)cc2C(=O)N2Cc3ccccc3C[C@H]2C)n1C` [Example 68, 5-(5-Fluoro-4-hydroxy-2-{[(3R)-3-methyl-3,4-dihydroisoquinolin-2(1H)-yl]carbonyl}phenyl)-N-(4-hydroxyphenyl)-1,2-dimethyl-N-(1-methyl-1H-pyrazol-4-yl)-1H-pyrrole-3-carboxamide], for which the IC50 on Bcl-2 protein was 2.1 nM; in assay [1] (Homo sapiens, RS4-11, 48 h) it was 20.7 nM.

Consider `Cc1c(C(=O)N(c2ccc(O)cc2)c2cnc3c(ccn3C)c2)cc(-c2cc3c(cc2C(=O)N2Cc4ccccc4C[C@H]2CN2CCN(C)CC2)OCO3)n1C` [Example 69, N-(4-Hydroxyphenyl)-1,2-dimethyl-5-(6-{[(3S)-3-[(4-methylpiperazin-1-yl)methyl]-3,4-dihydroisoquinolin-2(1H)-yl]carbonyl}-1,3-benzodioxol-5-yl)-N-(1-methyl-1H-pyrrolo[2,3-b]pyridin-5-yl)-1H-pyrrole-3-carboxamide hydrochloride], for which the IC50 amounted to 5.3 nM on Bcl-2 protein and 3.68 nM in assay [1] (Homo sapiens, RS4-11, 48 h).

With `Cc1c(C(=O)N(c2ccncc2)c2ccc(O)cc2)cc(-c2cc3c(cc2C(=O)N2Cc4ccccc4C[C@H]2CN2CCN(C)CC2)OCO3)n1C` [Example 70, N-(4-Hydroxyphenyl)-1,2-dimethy-5-(6-{[(3S)-3-[(4-methylpiperazin-1-yl)methyl]-3,4-dihydroisoquinolin-2(1H)-yl]carbonyl}4,3-benodioxol-5-yl)-N-(pyridin-4-yl)-1H-pyrrole-3-carboxamide hydrochloride], the IC50 on Bcl-2 protein came to 8.5 nM; in assay [1], 63.5 nM.

With `Cc1c(C(=O)N(c2ccc(O)cc2)c2ccc3c(c2)ncn3C)cc(-c2cc(Cl)ccc2C(=O)N2Cc3ccccc3C[C@H]2CN2CCOCC2)n1C` [Example 72, 5-(5-Chloro-2-{[(3S)-3-(morpholin-4-ylmethyl)-3,4-dihydroisoquinolin-2(1H)-yl]carbonyl}phenyl)-N-(4-hydroxyphenyl)-1,2-dimethyl-N-(1-methyl-1H-benzimidazol-5-yl)-1H-pyrrole-3-carboxamide], the concentration for half-maximal inhibition (IC50) on Bcl-2 protein worked out at 7.7 nM; in assay [1] (Homo sapiens, RS4-11, 48 h), 43.6 nM.

Regarding `Cc1c(C(=O)N(c2ccncc2)c2ccc(O)cc2)cc(-c2cc3c(cc2C(=O)N2Cc4ccccc4C[C@H]2CN2CCOCC2)OCO3)n1C` [Example 73, N-(4-Hydroxyphenyl)-1,2-dimethyl-5-(6-{[(3S)-3-(morpholin-4-ylmethyl)-3,4-dihydroisoquinolin-2(1H)-yl]carbonyl}-1,3-benzodioxol-5-yl)-N-(pyridin-4-yl)-1H-pyrrole-3-carboxamide dihydrochloride], the concentration for half-maximal inhibition (IC50) at Bcl-2 protein was determined as 8 nM; in assay [1] (Homo sapiens, RS4-11, 48 h) it was 42.6 nM.

On to `Cc1c(C(=O)N(c2ccncc2)c2ccc(O)cc2)cc(-c2cc(Cl)ccc2C(=O)N2Cc3ccccc3C[C@H]2CN2CCOCC2)n1C` [Example 74, 5-(5-Chloro-2-{[(3S)-3-(morpholin-4-ylmethyl)-3,4-dihydroisoquinolin-2(1H)-yl]carbonyl}phenyl)-N-(4-hydroxyphenyl)-1,2-dimethyl-N-(pyridin-4-yl)-1H-pyrrole-3-carboxamide hydrochloride], for which the IC50 on Bcl-2 protein was 4 nM; in assay [1] (Homo sapiens, RS4-11, 48 h), 45.4 nM.

`Cn1cc(N(C(=O)c2cc(-c3cc4c(cc3C(=O)N3Cc5ccccc5C[C@H]3CN3CCOCC3)OCO4)n(C)c2C(F)(F)F)c2ccc(O)cc2)cn1` [Example 75, N-(4-Hydroxyphenyl)-1-methyl-N-(1-methyl-4H-pyrazol-4-yl)-5-(6-{[(3S)-3-(morpholin-4-ylmethyl)-3,4-dihydroisoquinolin-2(1TH-yl]carbonyl}-1,3-benzodioxol-5-yl)-2-(trifluoromethyl)-1H-pyrrole-3-carboxamide hydrochloride]: the results for the 50% inhibitory concentration (IC50) (on Bcl-2 protein; in assay [1]) were 52.9 nM and 367 nM, respectively.

Turning to `C[C@@H]1Cc2ccccc2CN1C(=O)c1cc2c(cc1-c1cc(C(=O)N(c3ccc(O)cc3)c3cnn(C)c3)c(CN3CCOCC3)n1C)OCO2` [Example 82, N-(4-Hydroxyphenyl)-1-methyl-5-(6-{[(3R)-3-methyl-3,4-dihydroisoquinolin-2(1H)-yl]carbonyl}-1,3-benzodioxol-5-yl)-N-(1-methyl-1H-pyrazol-4-yl)-2-(morpholin-4-ylmethyl)-1H-pyrrole-3-carboxamide], the IC50 at Bcl-2 protein amounted to 19.5 nM; in assay [1] (Homo sapiens, RS4-11, 48 h) it was 427 nM.

Regarding `COCCc1c(C(=O)N(c2ccc(O)cc2)c2cnc3c(ccn3C)c2)cc(-c2cc3c(cc2C(=O)N2Cc4ccccc4C[C@H]2CN2CCOCC2)OCO3)n1C` [Example 88, N-(4-Hydroxyphenyl)-2-(2-methoxyethyl)-1-methyl-N-(1-methyl-1H-pyrrolo[2,3-b]pyridin-5-yl)-5-(6-{[(3S)-3-(morpholin-4-ylmethyl)-3,4-dihydroisoquinolin-2(1H)-yl]carbonyl}4,3-benzodioxol-5-yl)-1H-pyrrole-3-carboxamide hydrochloride], the IC50 on Bcl-2 protein was 15.9 nM; in assay [1], 69.6 nM.

As for `CCn1c(-c2cc3c(cc2C(=O)N2Cc4ccccc4C[C@H]2CN2CCOCC2)OCO3)cc(C(=O)N(c2ccc(O)cc2)c2cnn(C)c2)c1C` [Example 92, 1-Ethyl-N-(4-hydroxyphenyl)-2-methyl-N-(1-methyl-1H-pyrazol-4-yl)-5-(6-{[(3S)-3-(morpholin-4-ylmethyl)-3,4-dihydroisoquinolin-2(1H)-yl]carbonyl}-1,3-benzodioxol-5-yl)-1H-pyrrole-3-carboxamide hydrochloride], the IC50 was found to be 8.4 nM at Bcl-2 protein and 37.8 nM in assay [1] (Homo sapiens, RS4-11, 48 h).

Regarding `COCCn1c(-c2cc3c(cc2C(=O)N2Cc4ccccc4C[C@H]2CN2CCOCC2)OCO3)cc(C(=O)N(c2ccc(O)cc2)c2cnn(C)c2)c1C` [Example 93, N-(4-Hydroxyphenyl)-1-(2-methoxyethyl)-2-methyl-N-(1-methyl-1H-pyrazol-4-yl)-5-(6-{[(3S)-3-(morpholin-4-ylmethyl)-3,4-dihydroisoquinolin-2(1H)-yl]carbonyl}-1,3-benzodioxol-5-yl)-1H-pyrrole-3-carboxamide hydrochloride], the IC50 at Bcl-2 protein was determined as 19.7 nM; in assay [1] (Homo sapiens, RS4-11, 48 h), 368 nM.
